From patent publication US8575197B2, “Pyrolinone derivative and pharmaceutical composition comprising the same” (Shionogi & Co., Ltd., priority 2008, dated 2013) come the findings set out here.

Sequence of human P2X3 receptor (P56373 whole entry): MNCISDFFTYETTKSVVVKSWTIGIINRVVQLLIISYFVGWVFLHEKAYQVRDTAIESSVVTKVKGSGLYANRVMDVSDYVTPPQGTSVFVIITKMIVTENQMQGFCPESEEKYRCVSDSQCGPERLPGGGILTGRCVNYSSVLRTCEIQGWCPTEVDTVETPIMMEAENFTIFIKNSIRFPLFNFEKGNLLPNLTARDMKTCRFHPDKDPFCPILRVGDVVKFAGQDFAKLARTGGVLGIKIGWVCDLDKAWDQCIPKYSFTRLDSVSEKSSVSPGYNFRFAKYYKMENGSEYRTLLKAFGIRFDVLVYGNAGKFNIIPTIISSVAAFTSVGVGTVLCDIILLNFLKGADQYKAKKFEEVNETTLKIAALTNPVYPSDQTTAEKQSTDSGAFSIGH

This assay deals with human P2X3 receptor (Homo sapiens (Human), UniProt P56373). As to the kind of experiment: P2X3 receptor inhibition, ATP-evoked Fluo-3 calcium fluorescence (FDSS 3000). The class given is cell-based. The conditions noted are these: C6BU-1 cell transfected with human P2X3 receptor gene; ATP-evoked Fluo-3 fluorescence. Put shortly:
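C6BU-1 cells stably transfected with human P2X3, loaded with 4 μM Fluo-3-AM for 1 h at 37 °C in HEPES buffer pH 7.5 with probenecid. Compound added 5 min before 40 nM ATP solution; fluorescence followed 3 min. IC50 from ratio of peak post-ATP to baseline fluorescence.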
The term IC50 denotes the concentration that inhibits the measured activity by half. Turning to `COc1ccccc1C1c2c(C(C)(C)C)n[nH]c2C(=O)N1c1ccc(-c2ccoc2)cn1` (stereo not drawn) [II-247], the IC50 worked out at 33 nM. Regarding `COc1ccccc1C1c2c(C(C)(C)C)n[nH]c2C(=O)N1c1ccc(-c2ccsc2)cn1` (stereo not drawn) [II-248], the half-maximal inhibitory concentration (IC50) amounted to 13 nM. In the case of `COc1ccccc1C1c2c(C(C)(C)CO)n[nH]c2C(=O)N1c1ccc(-c2ccoc2)cn1` (stereo not drawn) [II-250], the IC50 was determined as 43 nM. As for `COc1ccccc1C1c2c(C(C)(C)CO)n[nH]c2C(=O)N1c1ccc(-c2ccsc2)cn1` (stereo not drawn) [II-251], the figure is 8 nM; as for `COc1ccccc1C1c2c(C(C)(C)C)n[nH]c2C(=O)N1c1ccc(-c2ccoc2)nc1` (stereo not drawn) [II-253], 20 nM.

In the case of `COc1ccccc1C1c2c(C(C)(C)C)n[nH]c2C(=O)N1c1ccc(-c2ccsc2)nc1` (stereo not drawn) [II-254], the IC50 was 2 nM.

Turning to `COc1ccccc1C1c2c(C(C)(C)C)n[nH]c2C(=O)N1c1ccc(-c2cccs2)nc1` (stereo not drawn) [II-255], the IC50 was found to be 3 nM. As for `COc1ccccc1C1c2c(C(C)(C)C)n[nH]c2C(=O)N1c1ccc(-c2cccs2)cn1` (stereo not drawn) [II-256], the figure is 18 nM; as for `COc1ccccc1C1c2c(C(C)(C)C)n[nH]c2C(=O)N1c1ccc(-c2ccco2)cn1` (stereo not drawn) [II-257], 33 nM. As for `COc1ccccc1C1c2c(C(C)(CO)CO)n[nH]c2C(=O)N1c1ccc(-c2ccon2)cc1` (stereo not drawn) [II-258], the figure is 304 nM; as for `COc1ncccc1C1c2c(C(C)(C)C)n[nH]c2C(=O)N1c1ccc(Br)cn1` (stereo not drawn) [II-259], 410 nM; as for `COc1ncccc1C1c2c(C(C)(C)C)n[nH]c2C(=O)N1c1ccc(-c2cccs2)cn1` (stereo not drawn) [II-260], 36 nM. For `COc1ncccc1C1c2c(C(C)(C)C)n[nH]c2C(=O)N1c1ccc(-c2ccoc2)cn1` (stereo not drawn) [II-261] the value was 140 nM. Turning to `COc1ncccc1C1c2c(C(C)(C)C)n[nH]c2C(=O)N1c1ccc(-c2ccsc2)cn1` (stereo not drawn) [II-262], the concentration for half-maximal inhibition (IC50) is 39 nM.

As for `COc1ncccc1C1c2c(C(C)(C)C)n[nH]c2C(=O)N1c1ccc(-c2ccco2)cn1` (stereo not drawn) [II-263], the IC50 worked out at 108 nM.

Turning to `COc1ccccc1C1c2c(C(C)(C)CO)n[nH]c2C(=O)N1c1ccc(-c2cccs2)cn1` (stereo not drawn) [II-264], the IC50 amounted to 11 nM. Turning to `COc1ccccc1C1c2c(C(C)(C)CO)n[nH]c2C(=O)N1c1ccc(-c2ccco2)cn1` (stereo not drawn) [II-265], the IC50 is 31 nM.

On to `COc1ccccc1C1c2c(C(C)(CO)CO)n[nH]c2C(=O)N1c1ccc(-c2ccsc2)cc1` (stereo not drawn) [II-266], for which the IC50 came to 7 nM. As for `COc1ncccc1C1c2c(C(C)(C)C)n[nH]c2C(=O)N1c1ccc(-c2ccsc2)nc1` (stereo not drawn) [II-268], the figure is 24 nM. As for `COc1ncccc1C1c2c(C(C)(C)C)n[nH]c2C(=O)N1c1ccc(-c2ccoc2)nc1` (stereo not drawn) [II-269], the IC50 was found to be 363 nM. Regarding `COc1ncccc1C1c2c(C(C)(C)C)n[nH]c2C(=O)N1c1ccc(-c2cccs2)nc1` (stereo not drawn) [II-270], the IC50 amounted to 25 nM. Consider `COc1ncccc1C1c2c(C(C)(C)C)n[nH]c2C(=O)N1c1ccc(-c2ccco2)nc1` (stereo not drawn) [II-271], for which the IC50 was 153 nM. Turning to `COc1ccccc1C1c2c(C(C)(C)C)n[nH]c2C(=O)N1c1ccc(-c2ccsc2Cl)cc1` (stereo not drawn) [II-272], the IC50 amounted to 392 nM. As for `COc1ccccc1C1c2c(C(C)(C)C)n[nH]c2C(=O)N1c1ccc(-c2csc(C)c2)cc1` (stereo not drawn) [II-274], the figure is 19 nM.

`COc1ccccc1C1c2c(C(C)(C)C)n[nH]c2C(=O)N1c1ccc(-c2ccc(C)s2)cc1` (stereo not drawn) [II-275]: the IC50 was 27 nM. For `COCCOCc1ncccc1C1c2c(C(C)(C)C)n[nH]c2C(=O)N1c1ccc(-c2ccsc2)cc1` (stereo not drawn) [II-277] the value was 274 nM.

Take `COCCOc1ncccc1C1c2c(C(C)C)n[nH]c2C(=O)N1c1ccc(-c2ccsc2)cc1` (stereo not drawn) [II-278]: the concentration for half-maximal inhibition (IC50) was 13 nM. As for `COCCOc1ncccc1C1c2c(C(C)C)n[nH]c2C(=O)N1c1ccc(-c2ccon2)cc1` (stereo not drawn) [II-279], the figure is 378 nM; as for `COCCOc1ncccc1C1c2c(C(C)C)n[nH]c2C(=O)N1c1ccc(-c2noc(C)n2)cc1` (stereo not drawn) [II-280], 244 nM; as for `COCCOc1ncccc1C1c2c(n[nH]c2C(C)C)C(=O)N1c1ccc(-c2nc(C)no2)cc1` (stereo not drawn) [II-281], 664 nM.
